Laboratory results from ChEMBL document CHEMBL4346711, “Discovery of coumarin Mannich base derivatives as multifunctional agents against monoamine oxidase B and neuroinflammation for the treatment of Parkinson's disease” (Eur J Med Chem, 2019).
The source made the active and inactive calls. The calls are words filed in the database; no cut-off is given here.

Experiments:
[1] = species: Homo sapiens; assay: Selectivity index, ratio of IC50 for recombinant human MAO-A expressed in baculovirus infected BTI insect cells to IC50 for recombinant human MAO-B expressed in baculovirus infected BTI insect cells
[2] = target: T1, Amine oxidase [flavin-containing] A (Homo sapiens, UniProt P21397); assay: Inhibition of recombinant human MAO-A expressed in baculovirus infected BTI insect cells using p-tyramine as substrate preincubated for 60 mins followed by substrate addition and measured after 30 mins by horse-radish peroxidase-coupled amplex red reagent-based fluorescence spectrophotometric method
T1 sequence (P21397 whole entry): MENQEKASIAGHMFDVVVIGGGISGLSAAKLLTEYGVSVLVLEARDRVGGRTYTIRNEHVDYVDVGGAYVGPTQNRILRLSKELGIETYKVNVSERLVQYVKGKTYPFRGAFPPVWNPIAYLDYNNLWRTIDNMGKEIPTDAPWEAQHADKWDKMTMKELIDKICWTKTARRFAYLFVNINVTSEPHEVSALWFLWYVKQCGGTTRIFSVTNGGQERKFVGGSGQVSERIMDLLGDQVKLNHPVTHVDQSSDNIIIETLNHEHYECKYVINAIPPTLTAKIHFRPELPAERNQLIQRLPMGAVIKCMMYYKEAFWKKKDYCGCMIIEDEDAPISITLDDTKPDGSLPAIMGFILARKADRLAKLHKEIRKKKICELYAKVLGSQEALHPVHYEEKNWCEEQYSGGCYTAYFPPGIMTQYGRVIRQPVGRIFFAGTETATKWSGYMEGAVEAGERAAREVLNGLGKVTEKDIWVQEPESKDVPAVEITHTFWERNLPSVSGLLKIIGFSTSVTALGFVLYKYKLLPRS

[3] = target: T2, Amine oxidase [flavin-containing] B (Homo sapiens, UniProt P27338); assay: Inhibition of recombinant human MAO-B expressed in baculovirus infected BTI insect cells using p-tyramine as substrate preincubated for 60 mins followed by substrate addition and measured after 30 mins by horse-radish peroxidase-coupled amplex red reagent-based fluorescence spectrophotometric method
T2 sequence (P27338 whole entry): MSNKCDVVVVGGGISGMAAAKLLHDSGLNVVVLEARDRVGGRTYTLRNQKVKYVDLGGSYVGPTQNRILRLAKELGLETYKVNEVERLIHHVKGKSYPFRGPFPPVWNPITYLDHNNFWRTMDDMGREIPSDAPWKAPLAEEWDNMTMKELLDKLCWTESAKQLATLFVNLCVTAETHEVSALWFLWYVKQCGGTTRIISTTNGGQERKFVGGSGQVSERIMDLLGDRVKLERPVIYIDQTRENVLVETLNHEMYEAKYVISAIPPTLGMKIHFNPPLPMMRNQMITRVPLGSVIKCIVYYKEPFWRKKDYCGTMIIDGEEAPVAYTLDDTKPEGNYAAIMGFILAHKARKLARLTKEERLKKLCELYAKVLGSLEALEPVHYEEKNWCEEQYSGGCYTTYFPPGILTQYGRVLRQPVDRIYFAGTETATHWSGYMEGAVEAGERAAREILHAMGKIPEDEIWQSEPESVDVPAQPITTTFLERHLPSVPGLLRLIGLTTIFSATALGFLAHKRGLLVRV

[4] = Anti-neuroinflammatory activity in […] cells assessed as inhibition of LPS-induced NO production preincubated for 1 hr followed by LPS stimulation measured after 24 hrs by Griess reagent based assay; format: functional, cell-based; details: BV-2
[5] = test system: SH-SY5Y; assay: Neuroprotection against L-glutamic acid-induced cell death in human SH-SY5Y cells assessed as increase in cell viability preincubated for 1 hr followed by L-glutamic acid addition and measured after 24 hrs by MTT assay; format: functional, cell-based
[6] = test system: SH-SY5Y; assay: Neuroprotection against H2O2-induced cell death in human SH-SY5Y cells assessed as increase in cell viability preincubated for 1 hr followed by H2O2 addition and measured after 24 hrs by MTT assay; format: functional, cell-based
[7] = test system: Mus musculus; assay: Anti-neuroinflammatory activity in MPTP-induced C57BL/6 mouse of Parkinson's disease assessed as increase in tyrosine hydroxylase positive cells in substantia nigra at 10 mg/kg, po pretreated for 30 mins followed by MPTP challenge for 7 days and subsequent compound redosing for 5 days measured post-last dose by DAB staining based immunohistochemistry method; format: functional, organism-based
[8] = test system: Mus musculus; assay: Anti-parkinson's activity in MPTP-induced C57BL/6 mouse model of Parkinson's disease assessed as restoration of motor ability by measuring increase in latency to fall at 10 mg/kg, po pretreated for 30 mins followed by MPTP challenge for 7 days and subsequent compound redosing for 5 days measured post-last dose by rotarod test; format: functional, organism-based
[9] = test system: Mus musculus; assay: Anti-neuroinflammatory activity in po dosed MPTP-induced C57BL/6 mouse model of Parkinson's disease assessed as increase in tyrosine hydroxylase expression in mid brain pretreated for 30 mins followed by MPTP challenge for 7 days and subsequent compound redosing for 5 days measured post-last dose by DAB staining based immunohistochemistry method; format: functional, organism-based
[10] = test system: Mus musculus; assay: Anti-parkinson's activity in po dosed MPTP-induced C57BL/6 mouse model of Parkinson's disease assessed as restoration of motor ability by measuring increase in latency to fall pretreated for 30 mins followed by MPTP challenge for 7 days and subsequent compound redosing for 5 days measured post-last dose by rotarod test; format: functional, organism-based
[11] = test system: Mus musculus; assay: Anti-neuroinflammatory activity in C57BL/6 mouse assessed as reduction in MPTP-induced COX2 expression in mid brain at 50 mg/kg, po pretreated for 30 mins followed by MPTP challenge for 7 days and subsequent compound redosing for 5 days measured post-last dose by Western blotting analysis; format: functional, organism-based
[12] = test system: Mus musculus; assay: Anti-neuroinflammatory activity in C57BL/6 mouse assessed as reduction in MPTP-induced iNOS expression in mid brain at 50 mg/kg, po pretreated for 30 mins followed by MPTP challenge for 7 days and subsequent compound redosing for 5 days measured post-last dose by Western blotting analysis; format: functional, organism-based
[13] = test system: Mus musculus; assay: Ex vivo inhibition of MAO-A in mid brain homogenates of MPTP-induced C57BL/6 mouse model of Parkinson's disease at 50 mg/kg, ig using p-tyramine as substrate preincubated for 60 mins followed by substrate addition and measured after 30 mins by horse-radish peroxidase-coupled/amplex red reagent-based fluorescence spectrophotometric method; format: functional, organism-based
[14] = test system: Mus musculus; assay: Anti-parkinson's activity in MPTP-induced C57BL/6 mouse model of Parkinson's disease assessed as restoration of motor ability by measuring increase in latency to fall at 50 mg/kg, po pretreated for 30 mins followed by MPTP challenge for 7 days and subsequent compound redosing for 5 days measured post-last dose by rotarod test; format: functional, organism-based
[15] = test system: Mus musculus; assay: Anti-neuroinflammatory activity in po dosed MPTP-induced C57BL/6 mouse of Parkinson's disease assessed as increase in tyrosine hydroxylase positive cells in substantia nigra pretreated for 30 mins followed by MPTP challenge for 7 days and subsequent compound redosing for 5 days measured post-last dose by DAB staining based immunohistochemistry method; format: functional, organism-based
[16] = test system: Mus musculus; assay: Ex vivo Inhibition of MAO-B in mid brain homogenates of MPTP-induced C57BL/6 mouse model of Parkinson's disease at 50 mg/kg, ig using p-tyramine as substrate preincubated for 60 mins followed by substrate addition and measured after 30 mins by horse-radish peroxidase-coupled/amplex red reagent-based fluorescence spectrophotometric method; format: functional, organism-based

SMILES	Ratio IC50 [1]	IC50 [2] [µM]	IC50 [3] [µM]	IC50 [4] [µM]	EC50 [5] [µM]	EC50 [6] [µM]	also measured
O=C(CCN1CCOCC1)c1cc2ccc(O)cc2oc1=O	0.73	111	151	0.01	22.9	> 100	
CCN(CC)CCC(=O)c1cc2ccc(O)cc2oc1=O	0.96	89.9	94	2.67	13		
C#CCN(C)[C@H](C)Cc1ccccc1							Activity [7]: Active; Activity [8]: Active
O=C(CCN1CCCC1)c1cc2ccc(O)cc2oc1=O		> 200	> 200	0.61	> 100		
CN(C)CCC(=O)c1cc2cc(Br)c(O)c(Br)c2oc1=O		> 200	> 200	> 100		> 100	
Cc1cc(O)cc2oc(=O)c(C(=O)CCN3CCCCC3)cc12	1.14	136	119	0.11	> 100	83.7	
O=C(CCN1CCCC1)c1cc2cc(Br)c(O)c(Br)c2oc1=O		155	> 200	> 100		75.1	
Cc1cc(O)cc2oc(=O)c(C(=O)CCN3CCCC3)cc12	3.97	173	43.7	> 100	> 100		
CN(C)CCC(=O)c1cc2ccc(O)cc2oc1=O	1.53	110	71.4	0.56	> 100		
O=C(CCN1CCCCC1)c1cc2ccc(O)cc2oc1=O		> 200	> 200	2.13	45.4	> 100	
COc1ccc2cc(C(=O)CCN(C)C)c(=O)oc2c1	0.36	7.63	21.1	> 100		> 100	
COc1cc(/C=C/C(=O)CC(=O)/C=C/c2ccc(O)c(OC)c2)ccc1O [CURCUMIN]				1.58			
COc1ccc2cc(C(=O)CCN3CCOCC3)c(=O)oc2c1	0.53	2.46	4.62	8.61	> 100		
Cc1cc(O)cc2oc(=O)c(C(=O)CCN(C)C)cc12	> 100	> 200	3.66	0.22	25.7	19.7	Activity [9]: Active; Activity [10]: Dose-dependent effect; Activity [11]: Active; Activity [12]: Active; inhibition [13]: inactive; Activity [14]: Active; Activity [15]: Active; inhibition [16]: Active
O=C(CCN1CCOCC1)c1cc2cc(Br)c(O)c(Br)c2oc1=O	2.42	34.1	14.1	24.6		> 100	
Cc1cc(O)cc2oc(=O)c(C(=O)CCN3CCOCC3)cc12	2.74	98.5	36	0.28	> 100	> 100	
COc1ccc2cc(C(=O)CCN3CCCC3)c(=O)oc2c1	2.93	53.1	18.1	> 100		> 100	
O=C(CCN1CCN(Cc2ccccc2)CC1)c1cc2ccc(O)cc2oc1=O	2.63	108	41.1	3.64	> 100	1.82	
COc1ccc2cc(C(=O)CCN3CCCCC3)c(=O)oc2c1	0.61	12.2	20.1	0.02		> 100	
